According to patent US7628987B2, “Vectors derived from antibodies for transferring substances into cells” (Institut Pasteur, priority 1997, dated 2009):
Several values for one entry are separate records, joined by “and”; a condition that tells them apart may be missing. Equal entries are not always repeated. No end group written: not given here.

What was measured:
[1] = test system: HSV-1 TK^+ virus; assay: microbe, parasite or virus in culture; format: cell-based, Herpes Virus Simplex type I
[2] = test system: Vero cells; assay: Toxicity reference: non infected treated Vero cells (Neutral Red OD); format: cell-based, monkey
Protocol: The CPE inhibition test is a semi-quantitative test which measures the % survival of the cells. The following protocol was followed: Vero cells were trypsinised (trypsin-versene, Eurobio), distributed in flat bottomed 96-well plates (Falcon) in an amount of […] per well, in 50 μl of DMEM medium (Bioproducts) supplemented with antibiotics, L-glutamine and 5% FCS (Eurobio), then incubated for 24 hours. The peptide/antibodies, sterilised on a […] filter, were added in an amount of […] using the following schedule: • H−24: cells into culture; • H−0: infection; • H−2, H−1, H0, H+1: add peptides; • H+48: CPE test.
48 hours after infection, the medium was removed and the wells were washed 3 times with 200 μl of sterile PBS buffer containing Ca^2+ and Mg^2+, so as to eliminate dead cells. Neutral Red (RAL, 0.3%) was added (100 μl/well) and the cells were incubated for 2 more hours. The cells were then washed 3 times as described above to eliminate colorant which had not been incorporated into the cells. The cells were then exploded by adding 100 μl of 1% SDS in distilled water. After 1 hour at 4° C. to completely leach out the Neutral Red, the crystals were dissolved with a pipette. Air bubbles were destroyed by a current of hot air (hair dryer) and the plates were read, using a microplate reader at 570 nm using a 630 nm reference filter. The optical density blank was air.
The following controls were used: • Reference cells: non infected and non treated, incubated with Neutral Red; • Reference virus: infected cells with different dilutions of a factor of 2 of virus, from 100% CPE (dilution 1/1) to 12.5% CPE (1/8 dilution); • Antiviral reference: cells treated with acyclovir and infected; and • Toxicity reference: non infected cells, treated with different peptides/antibodies.

[3] = test system: HSV-1 TK^− virus; assay: microbe, parasite or virus in culture; format: cell-based, Herpes Virus Simplex type I; details: for inhibition of the CPE effect, in words: HSV-1 TK^−; for CPE inhibition (AI): HSV1 TK^−
[4] = test system: PV1/Mahoney; format: cell-based, polio virus type 1; details: peptide 25 μg/ml, day 5
[5] = test system: CCL39 cells; format: cell-based, hamster; details: CCL39, complete medium, no auxiliary agent
Protocol: CCL39 cells (hamster fibroblasts) (5×10^4 cells) were placed in 24 well culture plates for 18 hours before transfection in MEM+10% FCS (foetal calf serum) culture medium. Transfections were carried out in MEM+10% FCS with no other auxiliary agent (CHLOROQUINE). The peptide-PL and free polylysine PL (corresponding to 19 lysines) were complexed with the pCMVLUC plasmid (respectively 24 μg and 70 μg per 6 μg of plasmid) for 30 minutes. The complex was then added dropwise to the CCL39. After incubating for 5 hours, the medium was replaced with fresh medium. Luciferase expression was assayed 24 hours later. The cells were washed twice with PBS. After washing, the cells were lysed with 100 μl of lyse buffer (PROMEGA) for 10-15 minutes. The cells were then centrifuged for 7 minutes at 4° C. to remove cellular debris. 20 μl of this lysate was mixed with 100 μl of luciferase buffer (PROMEGA). The relative luciferase units (RLU) were recorded on a LUMAT LB9501 (BERTHOLD). The protein concentration was determined using a BIORAD PROTEIN ASSAY-1 kit and the amount of luciferase in each sample was normalised per mg of protein, each transfection being carried out three times.

[6] = test system: 3T3 cells
[7] = test system: CMV Ad169 strain; assay: Inhibition of cytomegalovirus (CMV) replication (morphology, plaque counting, Western blot); format: cell-based
[8] = test system: PV1/Sabin; format: cell-based, polio virus type 1; details: for LOG (TITER/ML) / TITER REDUCTION FACTOR: PV1/Sabin, peptide 25 μg/ml, day 5
[9] = Human alphaherpesvirus 1, Vero, read-out: CPE inhibition (antiviral activity)
[10] = HSV1 TK^+, added H + 1, 5 μ/well
[11] = HSV1 TK^+, added H + 1, 10 μ/well
[12] = HSV1 TK^+, added H + 1, 20 μ/well
[13] = HSV1 TK^+, added H − 1, 5 μ/well
[14] = HSV1 TK^+, added H − 1, 10 μ/well
[15] = HSV1 TK^+, added H − 1, 20 μ/well
[16] = HSV1 TK^+, added H − 2, 5 μ/well
[17] = HSV1 TK^+, added H − 2, 10 μ/well
[18] = HSV1 TK^+, added H − 2, 20 μ/well
[19] = Day 1, cells pretreated with 25 μg/ml
[20] = Day 4, cells pretreated with 25 μg/ml

Nc1nc2c(ncn2COCCO)c(=O)[nH]1 [ACYCLOVIR ®, Acyclovir, reference compound]
inhibition at 1000 µM ([1]; Human alphaherpesvirus 1, Vero, 10^−3 M, HSV1 TK^+, read-out: CPE inhibition (antiviral activity)): 62%
inhibition at 100 µM ([1]; Human alphaherpesvirus 1, Vero, 10^−4 M, HSV1 TK^+, read-out: CPE inhibition (antiviral activity)): 49%
inhibition at 10 µM ([1]; Human alphaherpesvirus 1, Vero, 10^−5 M, HSV1 TK^+, read-out: CPE inhibition (antiviral activity)): 7%
inhibition at 1 µM ([1]; Human alphaherpesvirus 1, Vero, 10^−6 M, HSV1 TK^+, read-out: CPE inhibition (antiviral activity)): 9%
optical density, non infected cells ([2]; 10^−3 M /0, column HSV1 TK^+): 0.909 ± 0.016
optical density, non infected cells ([2]; 10^−3 M /0, column HSV1 TK^−): 0.789 ± 0.160
optical density, non infected cells ([2]; 10^−4 M /0, column HSV1 TK^+): 1.027 ± 0.042
optical density, non infected cells ([2]; 10^−4 M /0, column HSV1 TK^−): 0.834 ± 0.086
optical density, non infected cells ([2]; 10^−5 M /0, column HSV1 TK^+): 0.975 ± 0.093
optical density, non infected cells ([2]; 10^−5 M /0, column HSV1 TK^−): 0.869 ± 0.053
optical density, non infected cells ([2]; 10^−6 M /0, column HSV1 TK^+): 0.960 ± 0.025
optical density, non infected cells ([2]; 10^−6 M /0, column HSV1 TK^−): 0.816 ± 0.001
inhibition of the CPE effect, in words [3]: no effect
inhibition at 1 µM [3, 9]: 0%
inhibition at 10 µM [3, 9]: 0%
inhibition at 100 µM [3, 9]: 0%
inhibition at 1000 µM [3, 9]: 0%

KKKKKKKKKKKKKKKKKKKVAYISRGGVSTYYSDTVKGRFTRQKYNKRA [K19pF4-1]
LOG (TITER/ML) [4]: 8.75
TITER REDUCTION FACTOR [4]: 8
CPE inhibition (AI) ([1]; HSV1 TK^+, added H0, 5 μ/well): 13
CPE inhibition (AI) ([1]; HSV1 TK^+, added H0, 10 μ/well): 30
CPE inhibition (AI) ([1]; HSV1 TK^+, added H0, 20 μ/well): 28
CPE inhibition (AI) [1, 10]: 10
CPE inhibition (AI) [1, 11]: 12
CPE inhibition (AI) [1, 12]: 10
CPE inhibition (AI) [1, 13]: 13
CPE inhibition (AI) [1, 14]: 30
CPE inhibition (AI) [1, 15]: 28
CPE inhibition (AI) [1, 16]: 1
CPE inhibition (AI) [1, 17]: 2
CPE inhibition (AI) [1, 18]: 7
transfection efficacy relative to polylysine alone [5]: about 1000 times
transfection efficacy (luciferase) ([5]; 24 μg peptide per 6 μg pCMVLUC, 5 h incubation): 2×10^6 RLU/mg of proteins
toxicity of the polyplex [6]: did not induce any toxicity
increase of transfection after 24 h with respect to 5 h30 ([6]; 3T3, charge ratio R 4.4): about 1.3 factor
luciferase activity ([6]; 3T3, charge ratio R 4.4, incubating for 5 h30): 2-3×10^7 RLU/mg of protein
inhibition of infection of cells by CMV [7]: ~100%
NUMBER OF PLAQUES FORMED, Mean [7, 19]: 100.0
NUMBER OF PLAQUES FORMED, individual determinations [7, 19]: 100 and 125 and 75
% reduct'n of plaques formed [7, 20]: 99.5%
NUMBER OF PLAQUES FORMED, Mean [7, 20]: 166.7
NUMBER OF PLAQUES FORMED, individual determinations [7, 20]: 0 and 250 (2×)
action on CMV proteins (Western blot) ([7]; added to cells after viral adsorption): had no action
inhibition of virus replication ([7]; cells treated before, and at the same time, as viral infection): 99.5%
cytopathogenic effects (morphology) ([7]; treated at the end of / after viral adsorption): large
appearance of CMV proteins (Western blot) ([7]; treated at the same time as viral infection): no appearance of late proteins was noted
cytopathogenic effects (morphology) ([7]; treated before or at the same time as the viral infection): displayed no morphological modifications
appearance of CMV proteins (Western blot) ([7]; treated before viral infection): the appearance of neither early proteins nor late proteins of the CMV was noted
inhibiting effect on type 1 polio virus replication [8]: more than 30 factor
LOG (TITER/ML) [8]: 8
TITER REDUCTION FACTOR [8]: 32
CPE inhibition (AI) ([3]; added H0, 5 μ/well): 15
CPE inhibition (AI) ([3]; added H0, 10 μ/well): 25
CPE inhibition (AI) ([3]; added H0, 20 μ/well): 42
CPE inhibition (AI) ([3]; added H + 1, 5 μ/well): 1
CPE inhibition (AI) ([3]; added H + 1, 10 μ/well): 13
CPE inhibition (AI) ([3]; added H + 1, 20 μ/well): 1
CPE inhibition (AI) ([3]; added H − 1, 5 μ/well): 25
CPE inhibition (AI) ([3]; added H − 1, 10 μ/well): 7
CPE inhibition (AI) ([3]; added H − 1, 20 μ/well): 47
CPE inhibition (AI) ([3]; added H − 2, 5 μ/well): 21
CPE inhibition (AI) ([3]; added H − 2, 10 μ/well): 5
CPE inhibition (AI) ([3]; added H − 2, 20 μ/well): 25

(K)19-VAYISRGGGIFYYQDSIKGRFTREKYGKRGMDY (KKKKKKKKKKKKKKKKKKKVAYISRGGGIFYYQDSIKGRFTREKYGKRGMDY) [K19pJ20-8]
LOG (TITER/ML) [4]: 8.9
TITER REDUCTION FACTOR [4]: 6
CPE inhibition (AI) ([1]; HSV1 TK^+, added H0, 5 μ/well): 37
CPE inhibition (AI) ([1]; HSV1 TK^+, added H0, 10 μ/well): 71
CPE inhibition (AI) ([1]; HSV1 TK^+, added H0, 20 μ/well): 86
CPE inhibition (AI) [1, 10]: 0
CPE inhibition (AI) [1, 11]: 1
CPE inhibition (AI) [1, 12]: 0
CPE inhibition (AI) [1, 13]: 27
CPE inhibition (AI) [1, 14]: 74
CPE inhibition (AI) [1, 15]: 89
CPE inhibition (AI) [1, 16]: 1
CPE inhibition (AI) [1, 17]: 44
CPE inhibition (AI) [1, 18]: 78
inhibition of the CPE effect, in words ([1]; HSV-1 TK^+): very active against the two viral strains
LOG (TITER/ML) [8]: 8.6
TITER REDUCTION FACTOR [8]: 8
CPE inhibition (AI) ([3]; added H0, 5 μ/well): 38
CPE inhibition (AI) ([3]; added H0, 10 μ/well): 56
CPE inhibition (AI) ([3]; added H0, 20 μ/well): 86
CPE inhibition (AI) ([3]; added H + 1, 5 μ/well): 1
CPE inhibition (AI) ([3]; added H + 1, 10 μ/well): 3
CPE inhibition (AI) ([3]; added H + 1, 20 μ/well): 11
CPE inhibition (AI) ([3]; added H − 1, 5 μ/well): 29
CPE inhibition (AI) ([3]; added H − 1, 10 μ/well): 49
CPE inhibition (AI) ([3]; added H − 1, 20 μ/well): 100
CPE inhibition (AI) ([3]; added H − 2, 5 μ/well): 55
CPE inhibition (AI) ([3]; added H − 2, 10 μ/well): 46
CPE inhibition (AI) ([3]; added H − 2, 20 μ/well): 0
inhibition of the CPE effect, in words [3]: very active against the two viral strains
